pIC50: −log10 of the molar value.
Molecular target: T1, human 5-hydroxytryptamine receptor 1A (5-HT1A) (Homo sapiens, UniProt P08908)
T1 sequence (P08908 1-422): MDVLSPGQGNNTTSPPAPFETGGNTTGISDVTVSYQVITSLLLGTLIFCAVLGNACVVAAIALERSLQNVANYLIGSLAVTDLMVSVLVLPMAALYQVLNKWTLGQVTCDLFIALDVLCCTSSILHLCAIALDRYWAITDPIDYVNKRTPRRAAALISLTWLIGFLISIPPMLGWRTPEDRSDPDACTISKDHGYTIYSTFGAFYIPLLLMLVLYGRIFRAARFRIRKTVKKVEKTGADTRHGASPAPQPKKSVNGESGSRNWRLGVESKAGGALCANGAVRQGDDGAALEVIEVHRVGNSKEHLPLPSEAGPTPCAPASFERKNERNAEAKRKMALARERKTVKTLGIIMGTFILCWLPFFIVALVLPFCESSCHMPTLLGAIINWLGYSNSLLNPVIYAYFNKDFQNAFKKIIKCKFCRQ
Experiment: Human 5-HT1A radioligand binding assay ([3H]-8-Hydroxy-DPAT)
Procedure: The objective of this study was to evaluate the binding properties of test compounds on 5-hydroxytryptamine receptor 1A (5-HT1A).
1. The assay buffer was prepared following Table 25 below.
2. 8 doses of reference and test compounds were prepared starting from 10 mM stock solution as required by 5-fold serial dilutions with 100% (v/v) DMSO.
3. UniFilter-96 GF/B plate was pretreated: • i. 50 μl/well of 0.5% (v/v) PEI was added to UniFilter-96 GF/B plates. The plates were sealed and incubated at 4° C. for 3 hrs. • ii. After incubation, the plates were washed 3 times with ice-cold wash buffer (50 mM Tris, pH7.4).
4. Assay plate was prepared: • i. Cell membrane was diluted with assay buffer and 100 μl/well was added to 96 round well plates to reach a concentration of 20 μg/well. • ii. 8 concentrations of reference or test compounds were prepared and 50 μl/well was added to 96 round deep well plates. • iii. [3H]-8-Hydroxy-DPAT was diluted with assay buffer to 2 nM (4× final concentration) and 50 μl/well was added to 96 round well plates.
5. The plate was centrifuged at 1000 rpm for 30 secs and then agitated at 600 rpm at room temperature for 5 min.
6. The plates were sealed and the plate was incubated at 27° C. for 90 min.
7. The incubation was stopped by vacuum filtration onto GF/B filter plates followed by 4 times washing with ice-cold wash buffer (50 mM Tris, pH7.4).
9. The filter plates were sealed and 40 μl/well of scintillation cocktail was added.
10. The plate was read by using a Microbeta^2 microplate counter.
1. For reference and test compounds, the results were expressed as % Inhibition, using the normalization equation: N=100−100×(U−C2)/(C1−C2), where U is the unknown value, C1 is the average of high controls, and C2 is the average of low controls.
2. The IC50 was determined by fitting percentage of inhibition as a […] of compound concentrations with Hill equation using XLfit.
1. The assay buffer was prepared following Table 55 below.
3. UniFilter-96 GF/B plate was pretreated: • i. 50 μL/well of 0.5% (v/v) PEI was added to UniFilter-96 GF/B plates. The plates were sealed and incubated at 4° C. for 3 hrs. • ii. After incubation, the plates were washed 3 times with ice-cold wash buffer (50 mM Tris, pH7.4).
4. Assay plate was prepared: • i. Cell membrane was diluted with assay buffer and 100 μl/well was added to 96 round well plates to reach a concentration of 20 μg/well. • ii. 8 concentrations of reference or test compounds were prepared and 50 μl/well was added to 96 round deep well plates. • iii. [3H]-8-Hydroxy-DPAT was diluted with assay buffer to 2 nM (4× final concentration) and 50 μL/well was added to 96 round well plates.

| SMILES | pIC50 |
| --- | --- |
| [2H]C([2H])(c1c[nH]c2ccc(OCCCCCN3C(=O)C4CCCCC4C3=O)cc12)[C@H]1CCCN1C([2H])([2H])[2H] (mixture of isomers) [Rac (R) I-248] | 8.08 |
| CSc1ccc2[nH]cc(C[C@H]3CCCN3C)c2c1 [(R) I-1, (R)-3-((1-Methylpyrrolidin-2-yl)methyl)-5-(methylthio)-1H-indole] | 8.52 |
| COCCN1CCC[C@@H]1Cc1c[nH]c2ccc(OC)cc12 [(R) I-98, (R)-5-Methoxy-3-((1-(2-methoxyethyl)pyrrolidin-2-yl)methyl)-1H-indole] | 8.30 |
| [2H]C([2H])(c1c[nH]c2ccc(OCCCCN3C(=O)c4ccccc4C3=O)cc12)[C@H]1CCCN1C([2H])([2H])[2H] [(R) I-244, (R)-2-(4-((3-((1-(Methyl-d3)pyrrolidin-2-yl)methyl-d2)-1H-indol-5-yl)oxy)butyl)isoindoline-1,3-dione] | 7.82 |
| [2H]C([2H])(c1c[nH]c2ccc(OCCCCCN3C(=O)c4ccccc4C3=O)cc12)[C@H]1CCCN1C([2H])([2H])[2H] [(R) I-245, (R)-2-(5-((3-((1-(Methyl-d3)pyrrolidin-2-yl)methyl-d2)-1H-indol-5-yl)oxy)pentyl)isoindoline-1,3-dione] | 8.30 |

From patent US12606543B2, “Indole derivatives as serotonergic agents useful for the treatment of disorders related thereto” (priority 2023, dated 2026)
